From patent US8895617B1, “Composition and method for treating neurological disease” (Adamas Pharmaceuticals, Inc., priority 2004, dated 2014)
“Also recorded” adds a separate entry of the source.

How the values were obtained:
[1] = humans; cited from earlier work
[2] = In vitro release profile, USP type 2 (paddle) dissolution; type: physicochemical; details: USP II Paddle, 0.1N HCl
Experimental: Compositions containing an aminoadamantane and levodopa/carbidopa are analyzed for release of the aminoadamantane and levodopa/carbidopa, according to the USP type 2 apparatus at a speed of 50 rpm. The dissolution media used include water, 0.1N HCl, or 0.1N HCl adjusted to pH 6.8 at 2 hours with phosphate buffer. The dissolution medium is equilibrated to 37±0.5° C.
The USP reference assay method for amantadine is used to measure the fraction of memantine released from the compositions prepared herein. Briefly, 0.6 mL sample (from the dissolution apparatus at a given time point) is placed into a 15 mL culture tube. 1.6 mL 0.1% Bromocresol Purple (in acetic acid) is added and vortexed for five seconds. The mixture is allowed to stand for approximately five minutes. 3 mL Chloroform is added and vortexed for five seconds. The solution is next centrifuged (speed […]) for five minutes. The top layer is removed with a disposable pipette. A sample is drawn into 1 cm flow cell and the absorbance is measured at 408 nm at 37° C. and compared against a standard curve prepared with known quantities of the same aminoadamantane. The quantity of determined is plotted against the dissolution time for the sample.
The USP reference assay method for levodopa is used to measure the fraction of levodopa released from the compositions prepared herein. Briefly, 0.5 ml samples from the dissolution apparatus removed at various times are assayed by liquid chromatography. The chromatograph is equipped with a 280 nm detector and a 3.9 mm×30 cm column containing packing Ll. The mobile phase is 0.09 N sodium phosphate, 1 mM sodium 1-decanesulfonate, pH 2.8. With the flow rate adjusted to about 2 mL per minute, the levodopa elutes in about 4 minutes and carbidopa elutes in about 11 minutes. From the saved dissolution samples, a 0.02 ml aliquot is injected into the chromatograph and the absorbance is measure and compared to standard to determine concentration & quantity. The quantity dissolved is then plotted against the dissolution time for the sample.
The cumulative fraction is the amount of drug substance released from the formulation matrix to the serum or gut environment (e.g., U.S. Pat. No. 4,839,177 or 5,326,570) or as measured with a USP II Paddle system using 0.1N HCl as the dissolution medium.

[3] = Estimated amantadine concentration in squirrel monkeys; type: in vivo, squirrel monkey; details: amantadine raised from 1 mg/kg to 45 mg/kg
Experimental: Briefly, squirrel monkeys (N=4) were lesioned with MPTP according to the protocol of Di Monte et al. (Mov. Disord. 15: 459-66 (2000)). […] Levodopa treatment at approximately 15 mg/kg (with 1.5 mg/kg carbidopa) mg/kg b.i.d. commenced a baseline UPDRS and dyskinesia measurement was established. […] We hypothesize that this translates into a potential 40% reduction in levodopa required to maintain UPDRS.

Compound	Dose Dependent Toxicity [1]	cum. fraction released ([2]; Time 0, amantadine and levodopa/carbidopa combination)	cum. fraction released ([2]; Time 0.5)	cum. fraction released ([2]; Time 1.0)	cum. fraction released ([2]; Time 2.0)	cum. fraction released ([2]; Time 4.0)	cum. fraction released ([2]; Time 8.0)	cum. fraction released ([2]; Time 12.0)	estimated concentration [3]
CC12CC3CC(C)(C1)CC(N)(C3)C2 [Memantine, 1-amino-3,5-dimethyladamantane]	Dose escalation; also recorded: hallucination	–	–	–	–	–	–	–	–
CC(N)C12CC3CC(CC(C3)C1)C2 (stereo not shown) [Rimantadine, 1-(1-aminoethyl)adamantane]	Insomnia	–	–	–	–	–	–	–	–
NC12CC3CC(CC(C3)C1)C2 [Amantadine, 1-amino-adamantane]	–	0.00	0.10	0.20	0.35	0.60	0.90	0.98	~3 μm
